Laboratory results published in patent US7915293B2, “Ubiquitin ligase inhibitors” (Rigel Pharmaceuticals, Inc., priority 2003, dated 2011).

Assays:
Set-up in all cases: key: “+” indicates that the compound exibits inhibitory activity; “−” indicates that low or no inhibitory activity was observed
A549 cells [1] = experiment: Cell proliferation assay, photographic image analysis of proliferation, apoptosis and death (PAD assay), A549; assay type: cell-based; details: 6 concentrations tested
In short: (§1)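 Cells grown in RPMI with 5% FBS (2,000/well) and dosed 24 h after plating with 6.3-fold dilutions in duplicate (master plate 500× final, top 10 mM stock). After 48 h at 37 °C, cells formamide-fixed and DAPI-stained. Image analysis counted live, apoptotic and dead cells.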

A549 cells [2] = experiment: Non-photographic proliferation analysis (Promega Cell titer Aqueous), A549; assay type: cell-based; details: 6 concentrations tested
In short: (§2)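 HeLa, A549 and HCT116 cells, 2,000 per well in RPMI with 5% FBS, were given compounds 24 h after plating as 6.3-fold duplicate dilutions from 10 mM stock, diluted 500-fold into the wells. After 48 h at 37° C, 5% CO2, Cell titer Aqueous reagent was added for 45 min and absorbance read at 490 nm.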

MDM2 / p53 substrate = MDM2 / p53 substrate (Homo sapiens, UniProt Q00987); experiment: Plate-based MDM2 substrate ligation assay (MDM2-P53-FLAG); assay type: biochemical; details: 8 concentrations tested
Sequence of MDM2 / p53 substrate (Q00987 whole entry): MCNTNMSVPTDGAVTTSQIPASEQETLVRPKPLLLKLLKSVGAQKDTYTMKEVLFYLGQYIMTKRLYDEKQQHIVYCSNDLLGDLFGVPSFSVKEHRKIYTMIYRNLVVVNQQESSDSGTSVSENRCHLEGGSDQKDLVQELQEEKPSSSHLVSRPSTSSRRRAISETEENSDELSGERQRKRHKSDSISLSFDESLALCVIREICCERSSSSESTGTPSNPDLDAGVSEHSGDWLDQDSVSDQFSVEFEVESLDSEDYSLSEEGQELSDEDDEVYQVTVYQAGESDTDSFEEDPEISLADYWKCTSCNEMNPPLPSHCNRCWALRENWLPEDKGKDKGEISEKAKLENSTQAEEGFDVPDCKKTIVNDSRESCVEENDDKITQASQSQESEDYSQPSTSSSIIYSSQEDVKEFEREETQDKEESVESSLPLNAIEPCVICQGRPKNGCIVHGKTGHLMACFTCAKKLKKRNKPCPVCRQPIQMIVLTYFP
Text: This assay was preformed essentially as described in WO 03/076899 (page 77, line 5 to page 80, line 13), hereby incorporated by reference in its entirety.

HeLa cells [3] = experiment: Non-photographic proliferation analysis (Promega Cell titer Aqueous), HeLa; assay type: cell-based; details: 6 concentrations tested
In short: as §2

E3 MDM2 = E3 MDM2 (Homo sapiens, UniProt Q00987); experiment: Plate-based autoubiquitination of the E3 MDM2 (MDM2-FLAG); assay type: biochemical; details: 8 concentrations tested
Sequence of E3 MDM2 (Q00987 whole entry): as above
Experimental: E3 (His-APC11/APC2-“APC”) auto-ubiquitination was measured as described in U.S. patent application Ser. No. 09/826,312 (Publication No. US-2002-0042083-A1), which is incorporated herein in its entirety. Details of the protocol are described below. Activity in the presence of the compound was determined relative to a parallel control in which only DMSO was added. Values of the IC50 were typically determined using 6 or 8 different concentrations of the compound, although as few as 2 concentrations may be used to approximate the IC50 value.
Nickel-coated 96-well plates (Pierce 15242) were blocked for 1 hour with 100 μl of blocking buffer at room temperature. The plates were washed 4 times with 225 μl of 1×PBS and 80 μl of the reaction buffer were added that contained 100 ng/well of Flag-ubiquitin. To this, 10 μl of the test compound diluted in DMSO were added. After the test compound was added, 10 μl of E1 (human), E2 (Ubch5c), and APC in Protein Buffer was added to obtain a final concentration of 5 ng/well of E1, 20 ng/well of E2 and 100 ng/well of APC. The plate were shaken for 10 minutes and incubated at room temperature for 1 hour. After incubation, the plates were washed 4 times with 225 μl of 1×PBS and 100 μl/well of Antibody Mix were added to each well. The plates were incubate at room temperature for another hour after which they were washed 4 times with 225 μl of 1×PBS and 100 μl/well of Lumino substrate were added to each well. The luminescence was measured by using a BMG luminescence microplate reader.
To prepare the Blocking Buffer (1 liter; 1% Casein in 1×PBS), 10 grams of Casein (Hammersten Grade Casein from Gallard-Schlesinger Inc. #440203) were placed into 1 liter of 1×PBS, stirred on a hot plate and kept between 50-60° C. for an hour. The buffer was allowed to cool to room temperature and then filtered using a Buchner Funnel (Buchner filter funnel 83 mm 30310-109) and Whatman filter paper (Whatman Grade No. 1 Filter paper 28450-070). It was stored at 4° C. until used.
The reaction buffer consisted of 62.5 mM Tris pH 7.6 (Trizma Base—Sigma T-8524), 3 mM MgCl2 (Magnesium Chloride—Sigma M-2393), 1 mM DTT (Sigma D-9779), 2.5 mM ATP (Roche Boehringer Mann Corp. 635-316), 100 ng/well of Flag-ubiquitin, 0.1% BSA (Sigma A-7906), and 0.05% Tween-20 (Sigma P-7949).
The Protein Buffer consisted of 20 mM Tris pH 7.6, 10% glycerol (Sigma G-5516) and 1 mM DTT.
The antibody mix consisted of 0.25% BSA (Sigma A-7906) in 1×PBS, 1/50,000 anti-Flag (Sigma F-3165), 1/100,000 of anti-Mouse IgG-HRP (Jackson Immunoresearch #115-035-146).
The substrate mix consisted of SuperSignal Substrate from Pierce (catalog number 37070ZZ) and was prepared by mixing 100 ml of the peroxide solution, 100 ml of the enhancer solution and 100 ml of Milli-Q® water.
In similar manner, autoubiquitination of the E3 MDM2 was determined (MDM2-FLAG). Further instruction in such assays can be found in U.S. patent application Ser. No. 10/108,767 (Publication No. US-2003-0104474 A1), which is incorporated herein in its entirety.

HeLa cells [4] = experiment: Cell proliferation assay, photographic image analysis of proliferation, apoptosis and death (PAD assay), HeLa; assay type: cell-based; details: 6 concentrations tested
In short: as §1

HCT116 cells [5] = experiment: Cell proliferation assay, photographic image analysis of proliferation, apoptosis and death (PAD assay), HCT116; assay type: cell-based; details: 6 concentrations tested
In short: as §1

[6] = target: E3 (His-APC11/APC2-"APC") (Homo sapiens, UniProt Q9NYG5+Q9UJX6); experiment: Plate-based E3 ligase assay (APC FLAG), auto-ubiquitination; assay type: biochemical; details: 8 concentrations tested
Sequence of E3 (His-APC11/APC2-"APC") (Q9NYG5 whole entry): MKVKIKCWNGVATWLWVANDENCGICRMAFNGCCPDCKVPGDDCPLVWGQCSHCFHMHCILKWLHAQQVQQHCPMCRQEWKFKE
Sequence of E3 (His-APC11/APC2-"APC") (Q9UJX6 whole entry): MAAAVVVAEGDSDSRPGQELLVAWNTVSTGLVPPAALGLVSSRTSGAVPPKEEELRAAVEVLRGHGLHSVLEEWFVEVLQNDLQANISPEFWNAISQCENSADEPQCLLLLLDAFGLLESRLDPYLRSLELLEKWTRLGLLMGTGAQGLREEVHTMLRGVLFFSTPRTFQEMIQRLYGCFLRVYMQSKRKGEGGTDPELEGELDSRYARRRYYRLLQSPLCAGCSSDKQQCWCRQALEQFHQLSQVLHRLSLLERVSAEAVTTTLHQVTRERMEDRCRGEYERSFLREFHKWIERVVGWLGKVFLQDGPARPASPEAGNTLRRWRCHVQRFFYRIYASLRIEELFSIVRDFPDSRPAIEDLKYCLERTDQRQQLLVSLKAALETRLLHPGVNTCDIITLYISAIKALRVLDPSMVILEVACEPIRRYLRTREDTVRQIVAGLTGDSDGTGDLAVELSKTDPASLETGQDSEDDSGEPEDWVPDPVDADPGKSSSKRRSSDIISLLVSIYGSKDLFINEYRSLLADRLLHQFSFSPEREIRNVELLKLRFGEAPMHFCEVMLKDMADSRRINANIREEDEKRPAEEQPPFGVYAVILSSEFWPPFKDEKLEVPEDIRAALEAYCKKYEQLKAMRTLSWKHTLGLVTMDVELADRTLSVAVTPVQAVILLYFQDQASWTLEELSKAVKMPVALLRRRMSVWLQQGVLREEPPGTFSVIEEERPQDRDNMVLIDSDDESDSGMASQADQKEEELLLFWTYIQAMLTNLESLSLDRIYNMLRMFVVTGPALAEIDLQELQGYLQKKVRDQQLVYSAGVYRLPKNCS
In short: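 His-APC11/APC2 auto-ubiquitination was run in casein-blocked nickel plates for 1 h at room temperature, with E1 at 5 ng/well, UbcH5c at 20 ng/well and APC at 100 ng/well. Buffer was 62.5 mM Tris pH 7.6, 3 mM MgCl2, 1 mM DTT, 2.5 mM ATP and Flag-ubiquitin at 100 ng/well. Detection used anti-Flag/HRP chemiluminescence, and IC50 was typically from 6 or 8 concentrations versus a DMSO control.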

HCT116 cells [7] = experiment: Non-photographic proliferation analysis (Promega Cell titer Aqueous), HCT116; assay type: cell-based; details: 6 concentrations tested
Experimental: A549 (ATCC# CCL-185), HeLa (ATCC# CCL-2), HCT116 (ATCC# CCL-247), and H1299 (ATCC# CRL-5803) cells were maintained in T175 flasks following the ATCC recommended media and handling procedures. Flasks reaching approximately 70% confluency were trypsinized and resuspended in RPMI media (Cell-Gro catalog number 10-040-CM) modified to contain 5% FBS, 100 ug/mlPen/Strep (Cell-Gro catalog number 30-002-CL), and 0.3 mg/ml L-Glutamine (Cell-Gro catalog number 25-003-CL). A 20,000 cells/ml solution was made for plating. Cells were plated in black Packard 96 well plates by placing 100 μl per well (2,000 cells per well).
Compounds and additional media were added 24 hours after cell plating. A compound master plate was created with concentrations 500 times greater than the final concentration added to the cells. All compound testing was done in duplicate using 6.3 fold dilutions starting with 10 mM. All outside wells (and 4 internal wells) were DMSO controls. Taxol and at least one additional control were run on all plates. Three microliters of the compound master plate were added to deep well blocks containing 750 μl of RPMI media. One hundred microliters were transferred from the compound/media deep well blocks to the plated cells resulting in a 500 fold dilution of the compounds. Cells were grown at 37° C., 5% CO2 for 48 hours.
Some cell plates were treated with Promega Cell titer Aqueous 1 kit (promega—VWR catalog number G3580). In this case, 48 hours after the test compound were added, 100 μl of media were removed and 20 μl of cell titer reagent were added to all wells. Plates were incubated at 37° C. for 45 minutes prior to absorbance reads on the Wallac plate reader at 490 nm for 0.1 sec/well.

SMILES	PAD Assay, A549 6 pt (A549 cells [1])	Cell Titer-Aqueous, A549 6 pt (A549 cells [2])	MDM2-P53 Flag 8 pt (MDM2 / p53 substrate)	Cell Titer-Aqueous, HELA 6 pt (HeLa cells [3])	MDM2-Auto Flag 8 pt (E3 MDM2)	PAD Assay, HELA 6 pt (HeLa cells [4])	PAD Assay, HCT116 6 pt (HCT116 cells [5])	APC Flag 8 pt [6]	Cell Titer-Aqueous, HCT116 6 pt (HCT116 cells [7])
O=[N+]([O-])c1ccc(Oc2c(Cl)cc(S(=O)(=O)Nc3cc(Cl)ccc3Cl)cc2Cl)c(Cl)c1 [Compound 203, 3,5-dichloro-4-(2-chloro-4-nitrophenoxy)-N-(2,5-dichlorophenyl)benzene sulfonamide]	+	+	+	+	+	+	+	+	
O=[N+]([O-])c1ccc(Oc2c(Cl)cc(S(=O)(=O)Nc3ccc(Cl)cc3[N+](=O)[O-])cc2Cl)c(Cl)c1 [Compound 215, 3,5-dichloro-4-(2-chloro-4-nitrophenoxy)-N-(4-chloro-2-nitrophenyl)benzene sulfonamide]	+	+	+	+	+	+	+	+	
O=[N+]([O-])c1ccc(Oc2c(Cl)cc(S(=O)(=O)Nc3cc(Br)cc(Br)n3)cc2Cl)c(Cl)c1 [Compound 218]	−	+	+	+	+	+	−	+	
O=[N+]([O-])c1ccc(Oc2c(Cl)cc(S(=O)(=O)Nc3cc([N+](=O)[O-])ccc3F)cc2Cl)c(Cl)c1 [Compound 220, 3,5-dichloro-4-(2-chloro-4-nitrophenoxy)-N-(2-fluoro-5-nitrophenyl)benzene sulfonamide]	+	+	−	+	+	+	+	+	
O=[N+]([O-])c1ccc(Oc2c(Cl)cc(S(=O)(=O)/N=C(\NO)Nc3ccc(Cl)cc3)cc2Cl)c(Cl)c1 [Example 58, 3,5-dichloro-4-(2-chloro-4-nitrophenoxy)-N-[(1Z)-[(4-chlorophenyl)amino](hydroxy-amino)methylene]benzenesulfonamide]	+	+	+	+	+	+		+	+
